Measured values: article PMC8371461 (Frontiers in Pharmacology, 2021)

Key:
MAK = target: T1, MAK (Homo sapiens, UniProt P20794); test: kinome scan; assay type: binding; details: 10 µM
T1 construct: purchased DiscoverX (KINOMEscan)

MAP4K2 = target: T2, MAP4K2 (Homo sapiens, UniProt Q12851); test: kinome scan; assay type: binding; details: 10 µM
T2 construct: purchased DiscoverX (KINOMEscan)

IRAK3 = target: T3, IRAK3 (Homo sapiens, UniProt Q9Y616); test: kinome scan; assay type: binding; details: 10 µM
T3 construct: purchased DiscoverX (KINOMEscan)

KIT(D816V) = target: T4, KIT(D816V) (Homo sapiens, UniProt P10721, D816V); test: kinome scan; assay type: binding; details: 10 µM
T4 construct: purchased DiscoverX (KINOMEscan)

ROCK1 = target: T5, ROCK1 (Homo sapiens, UniProt Q13464); test: kinome scan; assay type: binding; details: 10 µM
T5 construct: purchased DiscoverX (KINOMEscan)

PIK3C2B = target: T6, PIK3C2B (Homo sapiens, UniProt O00750); test: kinome scan; assay type: binding; details: 10 µM
T6 construct: purchased DiscoverX (KINOMEscan)
T6 sequence (O00750 whole entry): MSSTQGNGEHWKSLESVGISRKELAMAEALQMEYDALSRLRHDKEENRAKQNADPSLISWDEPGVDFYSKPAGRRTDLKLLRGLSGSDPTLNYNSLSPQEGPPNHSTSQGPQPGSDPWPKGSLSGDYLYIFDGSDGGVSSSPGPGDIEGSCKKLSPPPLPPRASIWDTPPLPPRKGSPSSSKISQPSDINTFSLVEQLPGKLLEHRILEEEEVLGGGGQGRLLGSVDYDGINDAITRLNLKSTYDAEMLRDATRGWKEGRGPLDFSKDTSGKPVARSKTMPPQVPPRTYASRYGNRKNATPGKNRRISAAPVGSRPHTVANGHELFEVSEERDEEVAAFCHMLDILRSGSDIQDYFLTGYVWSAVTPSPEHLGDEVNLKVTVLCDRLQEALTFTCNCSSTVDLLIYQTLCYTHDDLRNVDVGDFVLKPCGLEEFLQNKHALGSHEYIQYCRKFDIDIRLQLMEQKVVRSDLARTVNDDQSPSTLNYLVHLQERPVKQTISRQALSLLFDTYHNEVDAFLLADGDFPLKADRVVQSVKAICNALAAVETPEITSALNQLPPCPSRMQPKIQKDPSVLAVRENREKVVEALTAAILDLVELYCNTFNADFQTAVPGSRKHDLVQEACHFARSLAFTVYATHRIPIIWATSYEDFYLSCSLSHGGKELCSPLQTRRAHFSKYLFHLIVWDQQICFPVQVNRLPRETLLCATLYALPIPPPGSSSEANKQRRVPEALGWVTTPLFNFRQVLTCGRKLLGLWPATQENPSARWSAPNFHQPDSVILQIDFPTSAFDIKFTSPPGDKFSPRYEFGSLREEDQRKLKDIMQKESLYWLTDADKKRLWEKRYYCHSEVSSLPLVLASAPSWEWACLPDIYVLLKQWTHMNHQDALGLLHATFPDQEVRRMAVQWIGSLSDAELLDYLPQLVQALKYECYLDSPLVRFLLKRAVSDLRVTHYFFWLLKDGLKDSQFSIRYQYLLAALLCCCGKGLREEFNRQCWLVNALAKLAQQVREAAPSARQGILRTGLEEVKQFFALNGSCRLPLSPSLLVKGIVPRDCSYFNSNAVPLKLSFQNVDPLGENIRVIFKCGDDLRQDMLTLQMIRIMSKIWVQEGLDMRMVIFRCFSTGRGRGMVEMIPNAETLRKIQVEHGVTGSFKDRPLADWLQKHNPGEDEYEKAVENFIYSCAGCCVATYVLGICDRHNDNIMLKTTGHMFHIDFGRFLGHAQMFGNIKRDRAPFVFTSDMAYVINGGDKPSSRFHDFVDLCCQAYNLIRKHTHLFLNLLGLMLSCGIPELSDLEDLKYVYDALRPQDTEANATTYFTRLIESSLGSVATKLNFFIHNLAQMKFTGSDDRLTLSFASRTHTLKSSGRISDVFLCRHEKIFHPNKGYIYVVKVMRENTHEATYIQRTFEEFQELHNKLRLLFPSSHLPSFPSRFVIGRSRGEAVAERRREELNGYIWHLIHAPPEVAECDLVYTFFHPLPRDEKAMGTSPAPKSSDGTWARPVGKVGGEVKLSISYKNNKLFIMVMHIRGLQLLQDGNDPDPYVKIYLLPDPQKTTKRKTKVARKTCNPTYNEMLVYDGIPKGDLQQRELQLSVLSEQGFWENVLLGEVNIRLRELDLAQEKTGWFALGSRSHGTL

[1] = system: Euchromatic histone-lysine N-methyltransferase 2; parameters: method as in PubChem Bioassay ID 504,332; details: reported activity, data mining; ref PubChem Bioassay ID 504,332; cited from earlier work
RET(V804M) = target: T7, RET(V804M) (Homo sapiens, UniProt P07949, V804M); test: kinome scan; assay type: binding; details: 10 µM
T7 construct: purchased DiscoverX (KINOMEscan)

FGR = target: T8, FGR (Homo sapiens, UniProt P09769); test: kinome scan; assay type: binding; details: 10 µM
T8 construct: purchased DiscoverX (KINOMEscan)

EGFR(L747-T751delSins) = test: kinome scan; assay type: binding, human; details: 10 µM
RIOK2 = target: T9, RIOK2 (Homo sapiens, UniProt Q9BVS4); test: kinome scan; assay type: binding
T9 construct: T7 phage fusion (kinase-tagged phage); purchased DiscoverX; host or cells: BL21-derived E. coli (T7 phage)
T9 sequence (Q9BVS4 whole entry, the tested form may be a part): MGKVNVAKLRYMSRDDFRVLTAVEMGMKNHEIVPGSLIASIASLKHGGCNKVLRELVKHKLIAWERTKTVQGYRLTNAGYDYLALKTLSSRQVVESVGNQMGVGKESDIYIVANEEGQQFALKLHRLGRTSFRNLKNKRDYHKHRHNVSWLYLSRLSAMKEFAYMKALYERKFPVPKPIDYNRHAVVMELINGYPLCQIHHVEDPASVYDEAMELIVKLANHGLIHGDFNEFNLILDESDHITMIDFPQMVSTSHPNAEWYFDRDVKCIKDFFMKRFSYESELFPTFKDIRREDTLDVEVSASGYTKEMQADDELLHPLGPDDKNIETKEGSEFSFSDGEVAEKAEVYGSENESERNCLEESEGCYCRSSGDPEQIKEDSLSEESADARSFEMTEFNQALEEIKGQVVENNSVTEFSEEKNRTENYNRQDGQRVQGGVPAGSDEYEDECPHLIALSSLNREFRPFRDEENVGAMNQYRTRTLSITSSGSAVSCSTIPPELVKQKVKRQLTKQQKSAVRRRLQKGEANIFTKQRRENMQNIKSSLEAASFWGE

LRRK2(G2019S) = target: T10, LRRK2(G2019S) (Homo sapiens, UniProt Q5S007, G2019S); test: kinome scan; assay type: binding; details: 10 µM
T10 construct: purchased DiscoverX (KINOMEscan)

AXL = target: T11, AXL (Homo sapiens, UniProt P30530); test: kinome scan; assay type: binding; details: 10 µM
T11 construct: purchased DiscoverX (KINOMEscan)

EGFR(L747-S752delP753S) = target: T12, EGFR(L747-S752delP753S) (Homo sapiens, UniProt P00533, DEL747-752/P753S); test: kinome scan; assay type: binding; details: 10 µM
T12 construct: purchased DiscoverX (KINOMEscan)

CDK11 = target: T13, CDK11 (Homo sapiens, UniProt Q9BWU1); test: kinome scan; assay type: binding; details: 10 µM
T13 construct: purchased DiscoverX (KINOMEscan)

NEK11 = target: T14, NEK11 (Homo sapiens, UniProt Q8NG66); test: kinome scan; assay type: binding; details: 10 µM
T14 construct: purchased DiscoverX (KINOMEscan)

SGK3 = target: T15, SGK3 (Homo sapiens, UniProt Q96BR1); test: kinome scan; assay type: binding; details: 10 µM
T15 construct: purchased DiscoverX (KINOMEscan)

MAST1 = target: T16, MAST1 (Homo sapiens, UniProt Q9Y2H9); test: kinome scan; assay type: binding; details: 10 µM
T16 construct: purchased DiscoverX (KINOMEscan)
T16 sequence (Q9Y2H9 whole entry): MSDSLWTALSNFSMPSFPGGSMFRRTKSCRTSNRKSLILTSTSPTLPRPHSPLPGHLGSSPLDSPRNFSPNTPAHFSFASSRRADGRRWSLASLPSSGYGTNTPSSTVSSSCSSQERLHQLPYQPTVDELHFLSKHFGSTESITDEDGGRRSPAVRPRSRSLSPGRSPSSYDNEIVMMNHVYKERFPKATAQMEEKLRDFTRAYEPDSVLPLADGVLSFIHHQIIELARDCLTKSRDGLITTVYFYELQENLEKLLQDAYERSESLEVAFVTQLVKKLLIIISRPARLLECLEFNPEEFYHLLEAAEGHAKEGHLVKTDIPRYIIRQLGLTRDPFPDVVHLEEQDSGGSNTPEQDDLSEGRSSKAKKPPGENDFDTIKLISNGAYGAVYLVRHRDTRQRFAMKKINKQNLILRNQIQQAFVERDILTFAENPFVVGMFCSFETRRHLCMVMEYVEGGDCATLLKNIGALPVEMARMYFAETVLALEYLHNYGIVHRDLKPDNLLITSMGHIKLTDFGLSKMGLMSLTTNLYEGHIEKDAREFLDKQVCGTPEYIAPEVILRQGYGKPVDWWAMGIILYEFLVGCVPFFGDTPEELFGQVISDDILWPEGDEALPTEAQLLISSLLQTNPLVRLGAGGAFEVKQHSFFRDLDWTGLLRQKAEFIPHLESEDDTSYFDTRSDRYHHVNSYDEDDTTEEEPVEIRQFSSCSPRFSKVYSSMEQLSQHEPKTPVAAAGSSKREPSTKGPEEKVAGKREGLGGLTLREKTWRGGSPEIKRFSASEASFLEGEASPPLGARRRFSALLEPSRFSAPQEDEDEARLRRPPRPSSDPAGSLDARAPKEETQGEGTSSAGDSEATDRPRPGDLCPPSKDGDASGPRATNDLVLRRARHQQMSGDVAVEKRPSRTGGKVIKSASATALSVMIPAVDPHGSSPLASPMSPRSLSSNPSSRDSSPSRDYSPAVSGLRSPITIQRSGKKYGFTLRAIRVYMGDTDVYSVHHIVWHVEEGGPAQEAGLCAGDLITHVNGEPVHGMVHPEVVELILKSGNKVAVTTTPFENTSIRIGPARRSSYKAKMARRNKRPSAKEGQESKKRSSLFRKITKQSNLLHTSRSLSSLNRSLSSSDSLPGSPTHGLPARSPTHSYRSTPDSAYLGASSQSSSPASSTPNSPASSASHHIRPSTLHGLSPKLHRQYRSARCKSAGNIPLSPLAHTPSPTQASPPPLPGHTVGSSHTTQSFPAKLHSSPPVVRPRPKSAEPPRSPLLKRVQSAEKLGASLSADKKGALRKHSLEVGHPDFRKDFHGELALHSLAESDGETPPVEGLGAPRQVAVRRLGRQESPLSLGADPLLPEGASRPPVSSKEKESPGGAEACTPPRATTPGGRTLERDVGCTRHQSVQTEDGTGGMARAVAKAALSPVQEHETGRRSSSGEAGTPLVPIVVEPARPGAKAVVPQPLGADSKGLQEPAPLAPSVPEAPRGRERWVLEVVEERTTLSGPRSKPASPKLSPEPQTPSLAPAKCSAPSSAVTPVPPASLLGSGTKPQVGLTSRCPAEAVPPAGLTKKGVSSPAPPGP

YSK1 = target: T17, YSK1 (Homo sapiens, UniProt O00506); test: kinome scan; assay type: binding; details: 10 µM
T17 construct: purchased DiscoverX (KINOMEscan)

PRKG2 = target: T18, PRKG2 (Homo sapiens, UniProt Q13237); test: kinome scan; assay type: binding; details: 10 µM
T18 construct: purchased DiscoverX (KINOMEscan)

EPHA4 = target: T19, EPHA4 (Homo sapiens, UniProt P54764); test: kinome scan; assay type: binding; details: 10 µM
T19 construct: purchased DiscoverX (KINOMEscan)

NDR1 = target: T20, NDR1 (Homo sapiens, UniProt Q15208); test: kinome scan; assay type: binding; details: 10 µM
T20 construct: purchased DiscoverX (KINOMEscan)

CSNK2A1 = target: T21, CSNK2A1 (Homo sapiens, UniProt P68400); test: kinome scan; assay type: binding; details: 10 µM
T21 construct: purchased DiscoverX (KINOMEscan)

LZK = target: T22, LZK (Homo sapiens, UniProt O43283); test: kinome scan; assay type: binding; details: 10 µM
T22 construct: purchased DiscoverX (KINOMEscan)

CSNK1G2 = target: T23, CSNK1G2 (Homo sapiens, UniProt P78368); test: kinome scan; assay type: binding; details: 10 µM
T23 construct: purchased DiscoverX (KINOMEscan)

KIT(V559DV654A) = target: T24, KIT(V559DV654A) (Homo sapiens, UniProt P10721, V559D/V654A); test: kinome scan; assay type: binding; details: 10 µM
T24 construct: purchased DiscoverX (KINOMEscan)

PDGFRA = target: T25, PDGFRA (Homo sapiens, UniProt P16234); test: kinome scan; assay type: binding; details: 10 µM
T25 construct: purchased DiscoverX (KINOMEscan)

BMPR1B = target: T26, BMPR1B (Homo sapiens, UniProt O00238); test: kinome scan; assay type: binding; details: 10 µM
T26 construct: purchased DiscoverX (KINOMEscan)
T26 sequence (O00238 14-502): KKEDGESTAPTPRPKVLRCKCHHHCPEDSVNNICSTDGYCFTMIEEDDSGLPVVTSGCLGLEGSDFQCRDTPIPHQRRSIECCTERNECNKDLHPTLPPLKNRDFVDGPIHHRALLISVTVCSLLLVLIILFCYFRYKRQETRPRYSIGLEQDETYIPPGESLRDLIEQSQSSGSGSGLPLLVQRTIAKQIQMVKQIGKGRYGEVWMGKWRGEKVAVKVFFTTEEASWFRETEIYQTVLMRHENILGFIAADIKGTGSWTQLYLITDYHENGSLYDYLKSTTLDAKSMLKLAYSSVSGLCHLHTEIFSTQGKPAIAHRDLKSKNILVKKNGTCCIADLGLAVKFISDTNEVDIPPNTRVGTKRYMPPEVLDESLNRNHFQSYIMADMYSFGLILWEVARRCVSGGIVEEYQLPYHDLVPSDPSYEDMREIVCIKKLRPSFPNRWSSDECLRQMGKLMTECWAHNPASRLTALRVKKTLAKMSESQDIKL

PAK2 = target: T27, PAK2 (Homo sapiens, UniProt Q13177); test: kinome scan; assay type: binding; details: 10 µM
T27 construct: purchased DiscoverX (KINOMEscan)

ULK2 = target: T28, ULK2 (Homo sapiens, UniProt Q8IYT8); test: kinome scan; assay type: binding; details: 10 µM
T28 construct: purchased DiscoverX (KINOMEscan)

PRKD1 = target: T29, PRKD1 (Homo sapiens, UniProt Q15139); test: kinome scan; assay type: binding; details: 10 µM
T29 construct: purchased DiscoverX (KINOMEscan)

TLK1 = target: T30, TLK1 (Homo sapiens, UniProt Q9UKI8); test: kinome scan; assay type: binding; details: 10 µM
T30 construct: purchased DiscoverX (KINOMEscan)

PIP5K1A = target: T31, PIP5K1A (Homo sapiens, UniProt Q99755); test: kinome scan; assay type: binding; details: 10 µM
T31 construct: purchased DiscoverX (KINOMEscan)

CDK5 = target: T32, CDK5 (Homo sapiens, UniProt Q00535); test: kinome scan; assay type: binding; details: 10 µM
T32 construct: purchased DiscoverX (KINOMEscan)

EGFR(S752-I759del) = target: T33, EGFR(S752-I759del) (Homo sapiens, UniProt P00533, DEL752-759); test: kinome scan; assay type: binding; details: 10 µM
T33 construct: purchased DiscoverX (KINOMEscan)
T33 sequence (P00533 with tags, fused parts or gaps DEL752-759 limits assumed): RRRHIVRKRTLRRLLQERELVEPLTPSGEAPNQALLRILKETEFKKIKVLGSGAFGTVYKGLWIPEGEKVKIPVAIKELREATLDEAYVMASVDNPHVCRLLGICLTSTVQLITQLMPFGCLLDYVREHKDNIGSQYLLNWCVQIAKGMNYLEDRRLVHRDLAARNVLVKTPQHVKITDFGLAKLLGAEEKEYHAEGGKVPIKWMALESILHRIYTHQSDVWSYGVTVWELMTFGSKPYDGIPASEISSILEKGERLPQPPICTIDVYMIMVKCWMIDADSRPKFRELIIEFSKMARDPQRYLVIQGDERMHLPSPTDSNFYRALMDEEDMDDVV

[2] = target: T34, JAK2(JH1domain-catalytic) (Homo sapiens, UniProt O60674); test: kinome scan; assay type: binding; details: 10 µM
T34 construct: JAK2(JH1domain-catalytic); purchased DiscoverX (KINOMEscan)

AURKA = target: T35, AURKA (Homo sapiens, UniProt O14965); test: kinome scan; assay type: binding; details: 10 µM
T35 construct: purchased DiscoverX (KINOMEscan)
T35 sequence (O14965 whole entry): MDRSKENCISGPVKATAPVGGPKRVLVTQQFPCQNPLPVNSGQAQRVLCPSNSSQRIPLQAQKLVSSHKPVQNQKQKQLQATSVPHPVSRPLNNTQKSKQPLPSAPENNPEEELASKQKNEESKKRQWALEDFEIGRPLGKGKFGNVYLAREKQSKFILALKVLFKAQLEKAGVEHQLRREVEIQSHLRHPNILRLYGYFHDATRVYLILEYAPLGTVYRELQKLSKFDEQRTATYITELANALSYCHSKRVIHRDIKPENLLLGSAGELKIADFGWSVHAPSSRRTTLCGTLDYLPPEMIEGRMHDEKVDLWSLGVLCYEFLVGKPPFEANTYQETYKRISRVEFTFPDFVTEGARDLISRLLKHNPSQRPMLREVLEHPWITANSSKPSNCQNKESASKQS

GCN2(Kin.Dom.2S808G) = target: T36, GCN2(Kin.Dom.2S808G) (Homo sapiens, UniProt Q9P2K8, S808G); test: kinome scan; assay type: binding; details: 10 µM
T36 construct: GCN2(Kin.Dom.2S808G); purchased DiscoverX (KINOMEscan)

HUNK = target: T37, HUNK (Homo sapiens, UniProt P57058); test: kinome scan; assay type: binding; details: 10 µM
T37 construct: purchased DiscoverX (KINOMEscan)

[3] = target: T38, ABL1(M351T)-phosphorylated (Homo sapiens, UniProt P00519, M351T); test: kinome scan; assay type: binding; details: 10 µM
T38 construct: purchased DiscoverX (KINOMEscan)

Nc1ccc(N=Nc2ccccc2)c(N)n1 [phenazopyridine, 2,6-diamino-3-(phenylazo)pyridine]
kinase inhibition (MAK): 100
kinase inhibition (MAP4K2): 65
kinase inhibition (IRAK3): 71
kinase inhibition (KIT(D816V)): 100
kinase inhibition (ROCK1): 78
kinase inhibition (PIK3C2B): 70
Concentration [1]: 10 µM
remaining binding (% of control) (RET(V804M)): 100
remaining binding (% of control) (FGR): 87
kinase inhibition (EGFR(L747-T751delSins)): 80
remaining binding (% of control) (RIOK2; 10 µM): 0
remaining binding at 10 µM (RIOK2; read-out: % Of control): 0%
kinase inhibition (LRRK2(G2019S)): 91
kinase inhibition (AXL): 100
kinase inhibition (EGFR(L747-S752delP753S)): 73
kinase inhibition (CDK11): 90
kinase inhibition (NEK11): 100
kinase inhibition (SGK3): 100
kinase inhibition (MAST1): 85
kinase inhibition (YSK1): 96
kinase inhibition (PRKG2): 81
kinase inhibition (EPHA4): 86
kinase inhibition (NDR1): 100
kinase inhibition (CSNK2A1): 86
kinase inhibition (LZK): 100
kinase inhibition (CSNK1G2): 82
kinase inhibition (KIT(V559DV654A)): 87
kinase inhibition (PDGFRA): 38
kinase inhibition (BMPR1B): 95
kinase inhibition (PAK2): 97
kinase inhibition (ULK2): 96
kinase inhibition (PRKD1): 100
kinase inhibition (TLK1): 70
kinase inhibition (PIP5K1A): 56
kinase inhibition (CDK5): 90
kinase inhibition (EGFR(S752-I759del)): 97
kinase inhibition [2]: 82
kinase inhibition (AURKA): 100
remaining binding (% of control) (GCN2(Kin.Dom.2S808G)): 100
kinase inhibition (HUNK): 100
kinase inhibition [3]: 85
